US9322066B2, “Predictors for cancer treatment” (priority 2011, dated 2016)

Test system: relapsed or refractory, rituximab-naive or -sensitive follicular B-cell NHL
Test: Time to next anti-lymphoma therapy, Vc-R vs rituximab study, by biomarker
Type: in vivo, human
Design: Median, Time to Next Anti-Lymphoma Therapy / Time to Next Anti-Lymphoma Therapy, Median: unit not given here
Source text: Non-Hodgkin lymphoma (NHL) encompasses several unique malignant lymphoid disease entities that vary in clinical behavior, morphologic appearance, immunologic, and molecular phenotype. […] A randomized, open-label, active-controlled, multicenter, multinational, prospective study to compare the efficacy and safety of the combination of bortezomib and rituximab (Vc-R) to single-agent rituximab in subjects who have relapsed or refractory, rituximab-naive or -sensitive follicular B-cell NHL was performed.
Subjects were centrally randomized to Treatment Groups A (Vc-R) or B (rituximab) in a 1:1 ratio taking into account the following stratification factors: • Follicular Lymphoma International Prognostic Index (FLIPI) score (low [0 or 1 factor], intermediate [2 factors], high [≧3 factors]); • Prior rituximab therapy (yes, no); • Time since last dose of anti-lymphoma therapy (≦1 year, >1 year); • Region (United States/Canada, European Union, Rest of World).
The following clinical endpoints were included in the analysis within each treatment group and an overall comparison was made with the biomarker-related endpoints: Progression-free survival, defined as the interval between the date of randomization and the date of progressive disease (PD) or death, whichever is first reported in the ITT population; overall survival; overall response rate (complete response [CR]+CR unconfirmed [CRu]+partial response [PR]); overall CR rate (CR+CRu); duration of response; time to next anti-lymphoma therapy; and treatment free interval.

[1] = 20S % NUCLEAR STAINING: 0-20, Female, IRC Review
[2] = 20S % NUCLEAR STAINING: 60-70, Male, IRC Review
[3] = 20S % NUCLEAR STAINING: 60-70, Prior Rituximab Therapy, IRC Review
[4] = 20S INTENSITY CYTOPLASMIC SIGNAL: ≧3+, European Union, IRC Review
[5] = 20S INTENSITY CYTOPLASMIC SIGNAL: ≧3+, Male, IRC Review
[6] = BCL2/A43G: MND, subgroup White, IRC review
[7] = BCL2/C.-11C > T: MND, subgroup White, IRC review
[8] = BCL2/E29K: MND, subgroup White, IRC review
[9] = BCL2/P46L: MND, subgroup White, IRC review
[10] = BCL2/P46S: MND, subgroup White, IRC review
[11] = BCL2/P59L: MND, subgroup White, IRC review
[12] = BCL2/P59S: MND, subgroup White, IRC review
[13] = BCL2/Q52P: MND, subgroup White, IRC review
[14] = BCL2/R106H: MND, subgroup White, IRC review
[15] = CD68 OVERALL POSITIVE: 0-25, 2 Prior Lines of Therapy, IRC Review
[16] = CD68 OVERALL POSITIVE: 0-25, >1 year since last anti-lymphoma treatment, IRC Review
[17] = CD68 OVERALL POSITIVE: 0-25, Ann Arbor Stage III, IRC Review
[18] = CD68 OVERALL POSITIVE: 0-25, Ann Arbor Stage IV, IRC Review
[19] = CD68 OVERALL POSITIVE: 0-25, European Union, IRC Review
[20] = CD68 OVERALL POSITIVE: 0-25, Female, IRC Review
[21] = CD68 OVERALL POSITIVE: 0-25, Intermediate FLIPI Score, IRC Review
[22] = CD68 OVERALL POSITIVE: 0-25, Low FLIPI Score, IRC Review
[23] = CD68 OVERALL POSITIVE: 0-25, Male, IRC Review
[24] = CD68 OVERALL POSITIVE: 0-25, No High Tumor Burden, IRC Review
[25] = CD68 OVERALL POSITIVE: 0-25, No Prior Rituximab Therapy, IRC Review
[26] = CD68 OVERALL POSITIVE: 0-25, No Subgroup, IRC Review
[27] = CD68 OVERALL POSITIVE: 0-25, Prior Rituximab Therapy, IRC Review
[28] = CD68 OVERALL POSITIVE: 0-25, White, IRC Review
[29] = CD68 OVERALL POSITIVE: 0-25, ≦65 years old, IRC Review
[30] = CD68 OVERALL POSITIVE: >75, Male, IRC Review
[31] = CD68 POSITIVE FOLLICULAR: 0-25, >1 year since last anti-lymphoma treatment, IRC Review
[32] = CD68 POSITIVE FOLLICULAR: 0-25, Ann Arbor Stage III, IRC Review
[33] = CD68 POSITIVE FOLLICULAR: 0-25, Asian, IRC Review
[34] = CD68 POSITIVE FOLLICULAR: 0-25, Female, IRC Review
[35] = CD68 POSITIVE FOLLICULAR: 0-25, Intermediate FLIPI Score, IRC Review
[36] = CD68 POSITIVE FOLLICULAR: 0-25, No High Tumor Burden, IRC Review
[37] = CD68 POSITIVE FOLLICULAR: 0-25, No Prior Rituximab Therapy, IRC Review
[38] = CD68 POSITIVE FOLLICULAR: 0-25, No Subgroup, IRC Review
[39] = CD68 POSITIVE FOLLICULAR: 0-25, White, IRC Review
[40] = CD68 POSITIVE FOLLICULAR: 0-25, ≦65 years old, IRC Review
[41] = CD68 POSITIVE PERIFOLLICULAR: 0-25, 2 Prior Lines of Therapy, IRC Review
[42] = CD68 POSITIVE PERIFOLLICULAR: 0-25, >1 year since last anti-lymphoma treatment, IRC Review
[43] = CD68 POSITIVE PERIFOLLICULAR: 0-25, Ann Arbor Stage IV, IRC Review
[44] = CD68 POSITIVE PERIFOLLICULAR: 0-25, Female, IRC Review
[45] = CD68 POSITIVE PERIFOLLICULAR: 0-25, Intermediate FLIPI Score, IRC Review
[46] = CD68 POSITIVE PERIFOLLICULAR: 0-25, No High Tumor Burden, IRC Review
[47] = CD68 POSITIVE PERIFOLLICULAR: 0-25, No Prior Rituximab Therapy, IRC Review
[48] = CD68 POSITIVE PERIFOLLICULAR: 0-25, No Subgroup, IRC Review

rituximab was tested, and the “Evt/N, Time to Next Anti-Lymphoma Therapy” value (“Evt/N, Time” below) [1] was 35/61, the “Median, Time to Next Anti-Lymphoma Therapy” value (“Median, Time” for short) [1] was 568 and the “Evt/N, Time” value [2] was 14/16. The “Median, Time” value [2] was 247, the “Evt/N, Time” value [3] was 17/21 and the “Median, Time” value [3] was 343. The “Evt/N, Time” value [4] was 34/52, the “Median, Time” value [4] was 533 and the “Evt/N, Time” value [5] was 20/27. For the same substance, the “Median, Time” value [5] was 421, the “Median, Time” value (BCL2/A43G: MND, subgroup Ann Arbor Stage IV, IRC review) was 450 and the “Evt/N, Time” value [6] was 89/140. For the same substance, the “Median, Time” value [6] was 504, the “Median, Time” value (BCL2/C.-11C > T: MND, subgroup Ann Arbor Stage IV, IRC review) was 450 and the “Evt/N, Time” value [7] was 110/168. The “Median, Time” value [7] was 504, the “Evt/N, Time” value [8] was 83/129 and the “Median, Time” value [8] was 485. For the same substance, the “Evt/N, Time” value [9] was 74/117, the “Median, Time” value [9] was 505 and the “Evt/N, Time” value [10] was 81/130. The “Median, Time” value [10] was 505, the “Evt/N, Time” value [11] was 80/129 and the “Median, Time” value [11] was 533. The “Evt/N, Time” value [12] was 81/128, the “Median, Time” value [12] was 505 and the “Evt/N, Time” value [13] was 85/135. The “Median, Time” value [13] was 504, the “Evt/N, Time” value [14] was 93/140 and the “Median, Time” value [14] was 501. The “time to next treatment interval” value (Biomarker positive (PSMB1 P11A heterozygote and CD68 Low)) was 14.8 mo, the “Evt/N, Time” value [15] was 6/8 and the “Median, Time” value [15] was 204. For the same substance, the “Evt/N, Time” value [16] was 17/26, the “Median, Time” value [16] was 409 and the “Evt/N, Time” value [17] was 12/16. For the same substance, the “Median, Time” value [17] was 276, the “Evt/N, Time” value [18] was 15/22 and the “Median, Time” value [18] was 434. For the same substance, the “Evt/N, Time” value [19] was 14/22, the “Median, Time” value [19] was 374 and the “Evt/N, Time” value [20] was 16/26. For the same substance, the “Median, Time” value [20] was 434, the “Evt/N, Time” value [21] was 7/11 and the “Median, Time” value [21] was 485. The “Evt/N, Time” value [22] was 8/10, the “Median, Time” value [22] was 422 and the “Evt/N, Time” value [23] was 14/18. For the same substance, the “Median, Time” value [23] was 251, the “Evt/N, Time” value [24] was 8/14 and the “Median, Time” value [24] was 552. The “Evt/N, Time” value [25] was 12/19, the “Median, Time” value [25] was 533 and the “Evt/N, Time” value [26] was 30/44. The “Median, Time” value [26] was 409, the “Evt/N, Time” value [27] was 18/25 and the “Median, Time” value [27] was 235. For the same substance, the “Evt/N, Time” value [28] was 24/35, the “Median, Time” value [28] was 409 and the “Evt/N, Time” value [29] was 24/34. The “Median, Time” value [29] was 374, the “Evt/N, Time” value (CD68 OVERALL POSITIVE: 51-75, No High Tumor Burden, IRC Review) was 10/25 and the “Evt/N, Time” value [30] was 8/9. The “Median, Time” value [30] was 427, the “Evt/N, Time” value [31] was 22/34 and the “Median, Time” value [31] was 550. The “Evt/N, Time” value [32] was 19/24, the “Median, Time” value [32] was 332 and the “Evt/N, Time” value [33] was 5/6. The “Median, Time” value [33] was 220, the “Evt/N, Time” value [34] was 23/37 and the “Median, Time” value [34] was 462. For the same substance, the “Evt/N, Time” value [35] was 14/20, the “Median, Time” value [35] was 421 and the “Evt/N, Time” value [36] was 14/22. For the same substance, the “Median, Time” value [36] was 573, the “Evt/N, Time” value [37] was 23/36 and the “Median, Time” value [37] was 485. For the same substance, the “Evt/N, Time” value [38] was 40/60, the “Median, Time” value [38] was 462 and the “Evt/N, Time” value [39] was 32/48. For the same substance, the “Median, Time” value [39] was 462, the “Evt/N, Time” value [40] was 33/46 and the “Median, Time” value [40] was 332. For the same substance, the “Evt/N, Time” value [41] was 6/8, the “Median, Time” value [41] was 171 and the “Evt/N, Time” value [42] was 15/24. The “Median, Time” value [42] was 533, the “Evt/N, Time” value [43] was 11/15 and the “Median, Time” value [43] was 374. The “Evt/N, Time” value [44] was 19/28, the “Median, Time” value [44] was 374 and the “Evt/N, Time” value [45] was 7/13. The “Median, Time” value [45] was 501, the “Evt/N, Time” value [46] was 8/13 and the “Median, Time” value [46] was 501. The “Evt/N, Time” value [47] was 12/18, the “Median, Time” value [47] was 533 and the “Evt/N, Time” value [48] was 26/39. For the same substance, the “Median, Time” value [48] was 374.
